The text below walks through data of patent US9655981B2, “Mixed micelles” (Omeros Corporation, priority 2011, dated 2017).

One data set has as its system MDA-MB-435-MDR cells. Briefly: Cytotoxicity, MTS assay. The following applies: 4 hours treatment, viability after 24 hours, 16 μg/mL DOX. As to the method: The cell lines which were used were the MDA-MB-435 (Parent) and MDA-MB-435-MDR (MDR) cell lines.
Cytotoxicity was measured by treating MDA-MB-435 (Parent) and MDA-MB-435-MDR cells for 4 hours with free doxorubicin and encapsulated doxorubicin using various formulations of mixed micelles. After 4 hours the doxorubicin was rinsed from the cells. After 24 hours the cell viability was measured using an MTS assay. MDA-MB-435 cells were treated with 4 μg/mL DOX, and […] cells were treated with 16 μg/mL DOX.

The nature of data set [1]: Stability of ICG in micelles in vitro (decay of fluorescence emission in water). It is filed as physicochemical. Particulars: within forty-eight hours, deionized water, dark. An excerpt:
ICG has advantageous fluorescence properties for near-infrared imaging (NIR) in vivo but limitations include the molecule's photo, aqueous, and thermal instability as well as rapid binding to blood proteins and subsequent clearance by the liver. See, e.g., Cherrick, J. Clin. Invest. 39:592-600 (1959) and Kirchherr, et al., Mol. Pharmaceut. 6:480-491 (2009). Aqueous degradation of ICG occurs as a result of double bond saturation in the molecule's conjugated chain, and sequestering the molecule from the solvent radicals that activate this process reduces the rate of its degradation. See, e.g., Kirchherr et al., and Altinoglu and Adair, Wiley Interdisciplinary Reviews—Nanomedicine and Nanobiotechnology, 2:[…] (2010). To test the ability of the mixed micelle systems to stabilize ICG, the fluorescence of encapsulated dye was monitored over time at both room temperature and 37° C.
Stability of ICG in mixed micelles was evaluated by measuring decay of fluorescence emission in solution over a period of approximately ten days. […] At predetermined intervals, each mixture was sampled and the fluorescence intensity of the sample was evaluated with excitation at 775 nm and emission from 786 to 850 nm.

Consider `COc1cccc2c1C(=O)c1c(O)c3c(c(O)c1C2=O)C[C@@](O)(C(=O)CO)C[C@@H]3O[C@H]1C[C@H](N)[C@H](O)[C@H](C)O1` [Unencapsulated DOX, Doxorubicin], for which the “cytotoxicity (cell viability, in words)” value in the data set with MDA-MB-435-MDR cells is listed as “limited effect”.
Consider `CC1(C)C(/C=C/C=C/C=C/C=C2\N(CCCCS(=O)(=O)O)c3ccc4ccccc4c3C2(C)C)=[N+](CCCCS(=O)(=O)[O-])c2ccc3ccccc3c21` [free ICG, indocyanine green], for which the “ICG fluorescence, % of original fluorescence value” in data set [1] (37° C.) and in data set [1] (room temperature) was “less than 10%” each time.
